In ChEMBL document CHEMBL3797105, “Investigation of triazole-linked indole and oxindole glycoconjugates as potential anticancer agents: novel Akt/PKB signaling pathway inhibitors” (Medchemcomm, 2016):
pIC50: −log10 of the molar value. The source made the active and inactive calls. The rule behind the calls is not given here.

Columns and labels:
[1] = Cytotoxicity against human DU145 cells after 48 hrs by sulforhodamine B assay; type: functional, cell-based; details: DU-145, 48 h
A549 = assay: Cytotoxicity against human A549 cells after 48 hrs by sulforhodamine B assay; type: functional, cell-based; details: A549, 48 h
HeLa = assay: Cytotoxicity against human HeLa cells after 48 hrs by sulforhodamine B assay; type: functional, cell-based
MCF7 = assay: Cytotoxicity against human MCF7 cells after 48 hrs by sulforhodamine B assay; type: functional, cell-based; details: MCF7, 48 h
DU-145 [2] = assay: Induction of morphological changes in human DU145 cells after 48 hrs by microscopic analysis; type: functional, cell-based
DU-145 [3] = assay: Inhibition of colony formation in human DU145 cells after 9 days by crystal violet staining based microscopic analysis; type: functional, cell-based
[4] = Cell cycle arrest in human DU145 cells assessed as accumulation at sub G1 phase at 5 uM after 48 hrs by propidium iodide staining based flow cytometry (reference value: 2.30%); type: functional; details: DU-145
[5] = Cell cycle arrest in human DU145 cells assessed as accumulation at sub G1 phase at 10 uM after 48 hrs by propidium iodide staining based flow cytometry (reference value: 2.30%); type: functional; details: DU-145
[6] = Cell cycle arrest in human DU145 cells assessed as accumulation at sub G1 phase at 15 uM after 48 hrs by propidium iodide staining based flow cytometry (reference value: 2.30%); type: functional; details: DU-145
[7] = Cell cycle arrest in human DU145 cells assessed as accumulation at sub G1 phase at 20 uM after 48 hrs by propidium iodide staining based flow cytometry (reference value: 2.30%); type: functional; details: DU-145
[8] = Cell cycle arrest in human DU145 cells assessed as accumulation at sub G1 phase at 25 uM after 48 hrs by propidium iodide staining based flow cytometry (reference value: 2.30%); type: functional; details: DU-145
[9] = Cell cycle arrest in human DU145 cells assessed as accumulation at G0/G1 phase at 5 uM after 48 hrs by propidium iodide staining based flow cytometry (reference value: 61.28%); type: functional; details: DU-145
[10] = Cell cycle arrest in human DU145 cells assessed as accumulation at G0/G1 phase at 10 uM after 48 hrs by propidium iodide staining based flow cytometry (reference value: 61.28%); type: functional; details: DU-145
[11] = Cell cycle arrest in human DU145 cells assessed as accumulation at G0/G1 phase at 15 uM after 48 hrs by propidium iodide staining based flow cytometry (reference value: 61.28%); type: functional; details: DU-145
[12] = Cell cycle arrest in human DU145 cells assessed as accumulation at G0/G1 phase at 20 uM after 48 hrs by propidium iodide staining based flow cytometry (reference value: 61.28%); type: functional; details: DU-145
[13] = Cell cycle arrest in human DU145 cells assessed as accumulation at G0/G1 phase at 25 uM after 48 hrs by propidium iodide staining based flow cytometry (reference value: 61.28%); type: functional; details: DU-145
[14] = Cell cycle arrest in human DU145 cells assessed as accumulation at S phase at 5 uM after 48 hrs by propidium iodide staining based flow cytometry (reference value: 8.62%); type: functional; details: DU-145
[15] = Cell cycle arrest in human DU145 cells assessed as accumulation at S phase at 10 uM after 48 hrs by propidium iodide staining based flow cytometry (reference value: 8.62%); type: functional; details: DU-145
[16] = Cell cycle arrest in human DU145 cells assessed as accumulation at S phase at 15 uM after 48 hrs by propidium iodide staining based flow cytometry (reference value: 8.62%); type: functional; details: DU-145
[17] = Cell cycle arrest in human DU145 cells assessed as accumulation at S phase at 20 uM after 48 hrs by propidium iodide staining based flow cytometry (reference value: 8.62%); type: functional; details: DU-145
[18] = Cell cycle arrest in human DU145 cells assessed as accumulation at S phase at 25 uM after 48 hrs by propidium iodide staining based flow cytometry (reference value: 8.62%); type: functional; details: DU-145
[19] = Cell cycle arrest in human DU145 cells assessed as accumulation at G2/M phase at 5 uM after 48 hrs by propidium iodide staining based flow cytometry (reference value: 15.81%); type: functional; details: DU-145
[20] = Cell cycle arrest in human DU145 cells assessed as accumulation at G2/M phase at 10 uM after 48 hrs by propidium iodide staining based flow cytometry (reference value: 15.81%); type: functional; details: DU-145
[21] = Cell cycle arrest in human DU145 cells assessed as accumulation at G2/M phase at 15 uM after 48 hrs by propidium iodide staining based flow cytometry (reference value: 15.81%); type: functional; details: DU-145
[22] = Cell cycle arrest in human DU145 cells assessed as accumulation at G2/M phase at 20 uM after 48 hrs by propidium iodide staining based flow cytometry (reference value: 15.81%); type: functional; details: DU-145
[23] = Cell cycle arrest in human DU145 cells assessed as accumulation at G2/M phase at 25 uM after 48 hrs by propidium iodide staining based flow cytometry (reference value: 15.81%); type: functional; details: DU-145
DU-145 [24] = assay: Induction of apoptosis in human DU145 cells assessed as activation of caspase 8 using Ac-VETD-AMC as substrate preincubated for 48 hrs followed by substrate addition measured after 2 hrs by fluorescence analysis; type: functional, cell-based
DU-145 [25] = assay: Induction of apoptosis in human DU145 cells assessed as activation of caspase 9 using […] as substrate preincubated for 48 hrs followed by substrate addition measured after 2 hrs by fluorescence analysis; type: functional, cell-based
DU-145 [26] = assay: Induction of apoptosis in human DU145 cells assessed as activation of caspase 3 using Ac-DEVD AMC as substrate at 5 to 25 uM preincubated for 48 hrs followed by substrate addition measured after 2 hrs by fluorescence analysis; type: functional, cell-based
DU-145 [27] = assay: Inhibition of Akt phosphorylation in human DU145 cells after 48 hrs by Western blot analysis; type: cell-based
DU-145 [28] = assay: Inhibition of Akt in human DU145 cells assessed as increase in p27Kip1 levels after 48 hrs by Western blot analysis; type: cell-based
[29] = Cytotoxicity against mouse NIH/3T3 cells after 48 hrs by sulforhodamine B assay; details: NIH3T3, 48 h

| Structure (SMILES) | pIC50 [1] | pIC50 (A549) | pIC50 (HeLa) | pIC50 (MCF7) | Activity (DU-145 [2]) | inhibition (DU-145 [3]) | Activity [4] [%] | Activity [5] [%] | Activity [6] [%] | Activity [7] [%] | Activity [8] [%] | Activity [9] [%] | Activity [10] [%] | Activity [11] [%] | Activity [12] [%] | Activity [13] [%] | Activity [14] [%] | Activity [15] [%] | Activity [16] [%] | Activity [17] [%] | also measured |
| --- | --- | --- | --- | --- | --- | --- | --- | --- | --- | --- | --- | --- | --- | --- | --- | --- | --- | --- | --- | --- | --- |
| CC(=O)OC[C@H]1O[C@@H](n2cc(CN3C(=O)/C(=C/c4ccc(C)cc4)c4ccccc43)nn2)[C@H](OC(C)=O)[C@@H](OC(C)=O)[C@@H]1OC(C)=O | 5.03 | 4.80 | 4.07 | < 4.00 | Dose-dependent effect | Dose-dependent effect | 7.12 | 14.4 | 17.2 | 34.3 | 37.5 | 59.1 | 48.1 | 46.6 | 40.5 | 41.4 | 6.85 | 7.56 | 7.64 | 5.72 | Activity [18]: 4.86%; Activity [19]: 12.6%; Activity [20]: 16.7%; Activity [21]: 14.9%; Activity [22]: 10.9%; Activity [23]: 9.05%; Activity (DU-145 [24]): Dose-dependent effect; Activity (DU-145 [25]): Dose-dependent effect; Activity (DU-145 [26]): Active; inhibition (DU-145 [27]): Active; inhibition (DU-145 [28]): Dose-dependent effect; pIC50 [29]: 4.13 |
| CC(=O)OC[C@H]1O[C@@H](n2cc(Cn3cc(/C=C/C(=O)c4ccccc4)c4ccccc43)nn2)[C@H](OC(C)=O)[C@@H](OC(C)=O)[C@@H]1OC(C)=O | 4.84 | 4.79 | 4.48 | 4.62 | Dose-dependent effect | Dose-dependent effect | 4.53 | 43.7 | 54 | 82.4 | 84.1 | 75 | 21.2 | 21.5 | 12.9 | 12 | 4.72 | 4.41 | 3.82 | 1.34 | Activity [18]: 0.8%; Activity [19]: 8.22%; Activity [20]: 16.2%; Activity [21]: 11.9%; Activity [22]: 1.87%; Activity [23]: 1.01%; Activity (DU-145 [24]): Dose-dependent effect; Activity (DU-145 [25]): Dose-dependent effect; Activity (DU-145 [26]): Active; inhibition (DU-145 [27]): Active; inhibition (DU-145 [28]): Dose-dependent effect; pIC50 [29]: < 3.70 |
